Test results taken from patent publication US10364222B2, “Cyclic amine derivative and medical use thereof” (Toray Industries, Inc., priority 2016, dated 2019).

Legend:
[1] = tested on: IL-17 production in mouse splenocytes; test: Suppressive effect on IL-17 production by IL-23 stimulation in mouse splenocytes; format: cell-based; conditions: Splenocyte, 72 h, at 5 μmol/L of the test compound, 10 ng/mL human IL-23, 3 days, read-out: IL-17 production inhibition rate (%)
Description: Using mouse splenocytes, the suppressive effect of the cyclic amine derivative (I) or a pharmacologically acceptable salt thereof on IL-17 production by IL-23 stimulation was evaluated by a partially modified method mentioned in The Journal of Biological Chemistry, 2003, Vol. 278, No. 3, p. 1910-1914.
A single cell suspension was prepared from the spleen of C57BL/6J mice (male, 7 to 23 weeks old) (Charles River Laboratories Japan, Inc.) and splenocytes were prepared using Histopaque-1083 (Sigma-Aldrich Japan). The culture medium was used by adding 10% FBS (Gibco), 50 U/mL of penicillin 50 μg/mL of streptomycin (Gibco), 50 μmol/L of 2-mercaptoethanol (Gibco), and 100 U/mL of human IL-2 (Cell Science & Technology Institute, Inc.) to RPMI1640 medium (Gibco). The test compound was dissolved in DMSO and then diluted with the culture medium to have a final concentration of DMSO of 0.1% before use. Splenocytes (3×10^5 cells/well) prepared in the culture medium were seeded in wells of a 96-well flat-bottom plate (Corning Incorporated), the test compound and 10 ng/mL of human IL-23 (R & D systems, Inc.) were added thereto, and the cells were cultured at 37° C. under 5% CO2 for 3 days. A well without addition of human IL-23 and without addition of the test compound and a well with addition of human IL-23 and without addition of the test compound were prepared. After completion of the culture, the culture supernatant was collected and the IL-17 production amount in the supernatant was determined by ELISA method (R & D systems, Inc.).
The IL-17 production inhibition rate (%) was calculated from Formula 2. IL-17 production inhibition rate(%)=(1−((IL-17 production amount with addition of IL-23 and with addition of the test compound)−(IL-17 production amount without addition of IL-23 and without addition of the test compound))/((IL-17 production amount with addition of IL-23 and without addition of the test compound)−(IL-17 production amount without addition of IL-23 and without addition of the test compound)))×100 Formula 2

[2] = target: T1, ligand-binding domain of RORγ (RORγ-LBD) (Homo sapiens, UniProt P51449); test: Inhibitory effect on RORγ-coactivator binding (LanthaScreen TR-FRET RORγ Coactivator Assay); conditions: at 33 μmol/L of the test compound; read-out: RORγ-coactivator binding inhibition rate (%)
T1 construct: purchased Invitrogen
T1 sequence (P51449 269-508 limits assumed): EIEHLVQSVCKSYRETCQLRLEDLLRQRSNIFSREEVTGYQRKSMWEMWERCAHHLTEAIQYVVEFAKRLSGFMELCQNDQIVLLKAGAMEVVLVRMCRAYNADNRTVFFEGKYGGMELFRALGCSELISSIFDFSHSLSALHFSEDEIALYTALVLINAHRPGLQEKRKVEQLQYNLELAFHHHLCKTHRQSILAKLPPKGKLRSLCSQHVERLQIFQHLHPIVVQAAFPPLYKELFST
Description: The inhibitory effect of the cyclic amine derivative (I) or a pharmacologically acceptable salt thereof on the binding between a ligand-binding domain of RORγ (hereinafter referred to as RORγ-LBD) and a coactivator was evaluated using Invitrogen's LanthaScreen™TR-FRET Retinoid-Related Orphan Receptor (ROR) gamma Coactivator Assay kit utilizing time-resolved fluorescence energy transfer (TR-FRET).
The test compound was dissolved in DMSO and diluted with TR-FRET Coregulator Buffer D (Invitrogen) containing 5 mmol/L of DTT to have a final DMSO concentration of 1% before use. To each well of a 384-well black plate (Corning Inc.), 4 nmol/L of GST-fused RORγ-LBD (Invitrogen) diluted with the buffer mentioned above and the test compound were added. A well without addition of the test compound and without addition of GST-fused RORγ-LBD (background) and a well without addition of the test compound and with addition of GST-fused RORγ-LBD (control) were prepared. Next, 150 nmol/L of fluorescein-labeled TRAP220/DRIP-2 (Invitrogen) diluted with the buffer mentioned above and 32 nmol/L of terbium-labeled anti-GST antibody (Invitrogen) were added to each well. After incubating the plate at room temperature for 16 to 24 hours, the fluorescence at 495 nm and 520 nm when excited at 320 nm was measured for each well and the ratio (fluorescence value at 520 nm/fluorescence value at 495 nm) was calculated.
The fold change with addition of the test compound (ratio with addition of the test compound/ratio of the background), the fold change of the control (ratio of the control/ratio of the background), and the fold change of the background (ratio of the background/ratio of the background) were calculated, and then the inhibition rate of binding between RORγ-LBD and a coactivator (hereinafter referred to as RORγ-coactivator binding inhibition rate) (%) was calculated from Formula 1: RORγ-coactivator binding inhibition rate(%)=(1−((Fold change with addition of the test compound)−(Fold change of the background))/((Fold change of the control)−(Fold change of the background)))×100 Formula 1

| SMILES | inhibition at 5 µM [1] | inhibition at 33 µM [2] |
| --- | --- | --- |
| O=C(Nc1ccc(-c2ccccc2OC(F)(F)F)c(Cl)c1)C1CCCCN1C(=O)CCO (stereo not shown) [Example 42, N-(2-chloro-2′-(trifluoromethoxy)-[1,1′-biphenyl]-4-yl)-1-(3-hydroxypropanoyl)piperidine-2-carboxamide] | 99.8% | 92.8% |
| COC(=O)CC(=O)N1CCCCC1C(=O)Nc1ccc(-c2ccccc2OC(F)(F)F)c(Cl)c1 (stereo not shown) [Example 43, methyl 3-(2-((2-chloro-2′-(trifluoromethoxy)-[1,1′-biphenyl]-4-yl)carbamoyl)piperidin-1-yl)-3-oxopropanoate] | 92.4% | 99% |
| COC(=O)CCC(=O)N1CCCCC1C(=O)Nc1ccc(-c2ccccc2OC(F)(F)F)c(Cl)c1 (stereo not shown) [Example 44, methyl 4-(2-((2-chloro-2′-(trifluoromethoxy)-[1,1′-biphenyl]-4-yl)carbamoyl)piperidin-1-yl)-4-oxobutanoate] | 91.5% | 97.1% |
| COCCC(=O)N1CCCCC1C(=O)Nc1ccc(-c2ccccc2OC(F)(F)F)c(Cl)c1 (stereo not shown) [Example 45, N-(2-chloro-2′-(trifluoromethoxy)-[1,1′-biphenyl]-4-yl)-1-(3-methoxypropanoyl)piperidine-2-carboxamide] | 99.9% | 92% |
| Cn1cc(C(=O)N2CCCCC2C(=O)Nc2ccc(-c3ccccc3OC(F)(F)F)c(Cl)c2)cn1 (stereo not shown) [Example 46, N-(2-chloro-2′-(trifluoromethoxy)-[1,1′-biphenyl]-4-yl)-1-(1-methyl-1H-pyrazole-4-carbonyl)piperidine-2-carboxamide] | 99.2% | 99.3% |
| O=C(Nc1ccc(-c2ccccc2OC(F)(F)F)c(Cl)c1)C1CCCCN1C(=O)c1cn[nH]c1 (stereo not shown) [Example 48, N-(2-chloro-2′-(trifluoromethoxy)-[1,1′-biphenyl]-4-yl)-1-(1H-pyrazole-4-carbonyl)piperidine-2-carboxamide] | 99.4% | 102% |
| CC(C)Oc1ccccc1-c1ccc(NC(=O)C2CCCCN2C(=O)CN(C)S(C)(=O)=O)cc1Cl (stereo not shown) [Example 49, N-(2-chloro-2′-isopropoxy-[1,1′-biphenyl]-4-yl)-1-(2-(N-methylmethylsulfonamide)acetyl)piperidine-2-carboxamide] | 98.3% | 99.3% |
| Cn1ccnc1CC(=O)N1CCCCC1C(=O)Nc1ccc(-c2ccccc2OC(F)(F)F)c(Cl)c1 (stereo not shown) [Example 50, N-(2-chloro-2′-(trifluoromethoxy)-[1,1′-biphenyl]-4-yl)-1-(2-(1-methyl-1H-imidazol-2-yl)acetyl)piperidine-2-carboxamide] | 94.5% | 101% |
| CN(CC(=O)N1CCCCC1C(=O)Nc1ccc(-c2ccccc2OC(F)(F)F)c(F)c1)S(C)(=O)=O (stereo not shown) [Example 51, N-(2-fluoro-2′-(trifluoromethoxy)-[1,1′-biphenyl]-4-yl)-1-(2-(N-methylmethylsulfonamide)acetyl)piperidine-2-carboxamide] | 98.6% | 100% |
| O=C(Nc1ccc(-c2ccccc2OC(F)(F)F)c(Cl)c1)C1CCCCN1C(=O)Cn1ccnc1 (stereo not shown) [Example 52, 1-(2-(1H-imidazol-1-yl)acetyl)-N-(2-chloro-2′-(trifluoromethoxy)-[1,1′-biphenyl]-4-yl)piperidine-2-carboxamide] | 99.3% | 97.3% |
| O=C(Nc1ccc(-c2ccccc2OC(F)(F)F)c(Cl)c1)C1CCCCN1C(=O)Cn1cnnn1 (stereo not shown) [Example 53, 1-(2-(1H-tetrazol-1-yl)acetyl)-N-(2-chloro-2′-(trifluoromethoxy)-[1,1′-biphenyl]-4-yl)piperidine-2-carboxamide] | 102% | 105% |
| O=C(Nc1ccc(-c2ccccc2OC(F)(F)F)c(Cl)c1)C1CCCCN1C(=O)Cc1ccco1 (stereo not shown) [Example 54, 1-(2-(furan-2-yl)acetyl)-N-(2-chloro-2′-(trifluoromethoxy)-[1,1′-biphenyl]-4-yl)piperidine-2-carboxamide] | 98.7% | 102% |
| Cc1cc(C)n(CC(=O)N2CCCCC2C(=O)Nc2ccc(-c3ccccc3OC(F)(F)F)c(Cl)c2)n1 (stereo not shown) [Example 55, 1-(2-(3,5-dimethyl-1H-pyrazol-1-yl)acetyl)-N-(2-chloro-2′-(trifluoromethoxy)-[1,1′-biphenyl]-4-yl)piperidine-2-carboxamide] | 99.7% | 104% |
| Cc1cc(CC(=O)N2CCCCC2C(=O)Nc2ccc(-c3ccccc3OC(F)(F)F)c(Cl)c2)on1 (stereo not shown) [Example 56, 1-(2-(3-methylisoxazol-5-yl)acetyl)-N-(2-chloro-2′-(trifluoromethoxy)-[1,1′-biphenyl]-4-yl)piperidine-2-carboxamide] | 107% | 104% |
| O=C(Nc1ccc(-c2ccccc2OC(F)(F)F)c(Cl)c1)[C@H]1CCCCN1C(=O)CCn1cnnn1 [Example 58, (R)-1-(3-(1H-tetrazol-1-yl)propanoyl)-N-(2-chloro-2′-(trifluoromethoxy)-[1,1′-biphenyl]-4-yl)piperidine-2-carboxamide] | 99.7% | 100% |
| O=C(Nc1ccc(-c2ccccc2OC(F)(F)F)c(Cl)c1)[C@H]1CCCCN1C(=O)CCn1ccnc1 [Example 59, (R)-1-(3-(1H-imidazol-1-yl)propanoyl)-N-(2-chloro-2′-(trifluoromethoxy)-[1,1′-biphenyl]-4-yl)piperidine-2-carboxamide] | 99.8% | 95.5% |
| Cc1ccn(CCC(=O)N2CCCC[C@@H]2C(=O)Nc2ccc(-c3ccccc3OC(F)(F)F)c(Cl)c2)n1 [Example 60, (R)-1-(3-(3-methyl-1H-pyrazol-1-yl)propanoyl)-N-(2-chloro-2′-(trifluoromethoxy)-[1,1′-biphenyl]-4-yl)piperidine-2-carboxamide] | 99.7% | 93.6% |
| O=C(Nc1ccc(-c2ccccc2OC(F)(F)F)c(Cl)c1)[C@H]1CCCCN1C(=O)Cn1cccn1 [Example 61, (R)-1-(2-(1H-pyrazol-1-yl)acetyl)-N-(2-chloro-2′-(trifluoromethoxy)-[1,1′-biphenyl]-4-yl)piperidine-2-carboxamide] | 98.8% | 102% |
| O=C(Nc1ccc(-c2ccccc2OC(F)(F)F)c(Cl)c1)[C@H]1CCCCN1C(=O)Cn1ccnn1 [Example 64, (R)-1-(2-(1H-1,2,3-triazol-1-yl)acetyl)-N-(2-chloro-2′-(trifluoromethoxy)-[1,1′-biphenyl]-4-yl)piperidine-2-carboxamide] | 99.4% | 97.3% |
| O=C(Nc1ccc(-c2ccccc2OC(F)(F)F)c(Cl)c1)[C@H]1CCCCN1C(=O)Cn1ccnc1 [Example 65, (R)-1-(2-(1H-imidazol-1-yl)acetyl)-N-(2-chloro-2′-(trifluoromethoxy)-[1,1′-biphenyl]-4-yl)piperidine-2-carboxamide] | 99.6% | 91.7% |
